Here are results for 17 molecules from patent US20060281778A1, “Compounds for inhibiting KSP Kinesin activity” (Schering Corporation, priority 2005, published 2006).

pIC50: −log10 of the molar value.

By pIC50 is commonly meant −log10 of the IC50, conventionally taken in molar units.

The first assay has as its target T1, KSP motor domain (Homo sapiens, UniProt P52732).
T1 sequence (P52732 18-359 limits assumed): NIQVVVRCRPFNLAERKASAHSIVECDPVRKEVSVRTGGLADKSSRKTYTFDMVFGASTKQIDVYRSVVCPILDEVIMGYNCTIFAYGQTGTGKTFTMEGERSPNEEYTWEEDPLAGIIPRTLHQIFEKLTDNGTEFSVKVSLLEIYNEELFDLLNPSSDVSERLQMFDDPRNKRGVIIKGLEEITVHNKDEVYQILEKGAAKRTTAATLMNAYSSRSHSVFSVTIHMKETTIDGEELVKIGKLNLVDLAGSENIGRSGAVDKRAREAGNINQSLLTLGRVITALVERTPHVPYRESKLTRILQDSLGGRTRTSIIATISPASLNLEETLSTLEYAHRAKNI
Put plainly: KSP endpoint assay (microtubule-stimulated ATPase, Biomol green, OD620).
Conditions: not given
The assay is classed as biochemical. As to the method:
Serial dilutions of the compounds were prepared in a low binding, 96-well microtiter plate (Costar #3600) using 40% DMSO (Fisher BP231). The diluted compounds were added to a 384-well microtiter plate (Fisher 12-565-506). […] Following a 10 minute incubation, ATP (Sigma A-3377) (final concentration of ATP: 100 μM) was added to start the reaction. The final reaction volume was 25 μL. Final test compound concentration ranged from 50 μM to 5 nM, and 10 μM to 0.128 nM. The reaction was incubated for 1 hour at room temperature. The reaction was stopped by the addition of 50 μL Biomol green reagent (Biomol AK111) per well, and was allowed to incubate for 20 minutes at room temperature. The 384-well microtiter plate was then transferred to an absorbance reader (Molecular Devices SpectraMax plus) and a single measurement was taken at 620 nm.
For both endpoint and kinetic assays, the percent activity for each concentration is calculated using the following equation: Y=((X−background)/(positive control−background))*100
Y is the % activity and X is the measured reading (OD620 or rate)
For an IC50 determination, the % activity was fit by the following equation using a nonlinear curve-fitting program for sigmoidal dose-responses (variable slopes) (GraphPad Prizm). Y=Bottom+(Top−Bottom)/(1+10ˆ((Log EC50−X)*HillSlope))
All IC50 values are obtained from the end point assay.
`C[Si](C)(C)c1ccc2nc3sc(C(N)=O)cc3cc2c1` [Compound 12, 6-(trimethylsilyl)thieno[2,3-b]quinoline-2-carboxamide] gave a pIC50 of 7.42.

Staying with this assay, now noted: endpoint assay; 2.5-10 nM KSP motor domain, 55 μg/mL microtubules, 100 μM ATP, 1 hour at room temperature; read-out: IC50 (KSP inhibitory activity, endpoint assay).
Turning to `CC(C)(C)c1ccc2nc3sc(C#N)cc3cc2c1` [Compound 1, 6-tert-butyl-thieno[2,3-b]quinoline-2-carbonitrile], the negative logarithm of the IC50 (pIC50) was 6.80.
Regarding `CC(C)(C)c1ccc2nc3sc(C(N)=O)cc3cc2c1` [Compound 2, 6-tert-butyl-thieno[2,3-b]quinoline-2-carboxylic acid amide], the pIC50 is 7.10.
With `CC(C)(C)c1ccc2nc3sc(C(=O)O)cc3cc2c1` [Compound 3, 6-tert-butyl-thieno[2,3-b]quinoline-2-carboxylic acid], the pIC50 is under 5.00.
Regarding `CC(C)(C)OC(=O)NCCNC(=O)c1cc2cc3cc(C(C)(C)C)ccc3nc2s1` [Compound 4, {2-[(6-tert-Butyl-thieno[2,3-b]quinoline-2-carbonyl)amino]ethyl}carbamic acid tert-butyl ester], the negative logarithm of the IC50 (pIC50) was under 5.00.
As for `CC(C)(C)c1ccc2nc3sc(C(=O)NCCN)cc3cc2c1` [Compound 5, 6-tert-butyl-thieno[2,3-b]quinoline-2-carboxylic acid (2-aminoethyl)amide], the pIC50 is 7.15.
In the case of `CNCCNC(=O)c1cc2cc3cc(C(C)(C)C)ccc3nc2s1` [Compound 6, 6-tert-butyl-thieno[2,3-b]quinoline-2-carboxylic acid (2-methylaminoethyl)amide], the pIC50 was 6.54.
Turning to `CN(C)CCNC(=O)c1cc2cc3cc(C(C)(C)C)ccc3nc2s1` [Compound 7, 6-tert-butyl-thieno[2,3-b]quinoline-2-carboxylic acid (2-dimethylaminoethyl)-amide], the pIC50 was under 5.00.
As for `CC(C)(C)c1ccc2nc3sc(C(=O)NCCC#N)cc3cc2c1` [Compound 8, 6-tert-Butyl-thieno[2,3-b]quinoline-2-carboxylic acid (2-cyanoethyl)amide], the pIC50 is 5.05.
Regarding `CC(C)(C)c1ccc2nc3sc(C(=O)NCC#N)cc3cc2c1` [Compound 9, 6-tert-butyl-thieno[2,3-b]quinoline-2-carboxylic acid cyanomethylamide], the pIC50 is 6.22.
In the case of `COc1ccc(CN2CC(NC(=O)c3cc4cc5cc(C(C)(C)C)ccc5nc4s3)C2=O)c(OC)c1` (centres unmarked) [Compound 10, 6-tert-butyl-thieno[2,3-b]quinoline-2-carboxylic acid [1-(2,4-dimethoxybenzyl)-2-oxo-azetidin-3-yl]amide], the pIC50 is under 5.00.
In the case of `CC(C)(C)c1ccc2nc3sc(C(=O)NC4CNC4=O)cc3cc2c1` (centres unmarked) [Compound 11, 6-tert-butyl-thieno[2,3-b]quinoline-2-carboxylic acid (2-oxo-azetidin-3-yl)amide], the pIC50 was 5.08.
In the case of `CC(C)(C)c1ccc2nc3sc(C(=O)N[C@H](CN)c4ccccc4)cc3cc2c1` [Compound 13, 6-tert-butyl-thieno[2,3-b]quinoline-2-carboxylic acid (2-amino-1-(S)-phenyl-ethyl)-amide], the pIC50 was 7.46.
Still for that read-out and setting: then `CC(C)(C)c1ccc2nc3sc(C(=O)N[C@H](CN)c4cccc(N)c4)cc3cc2c1` [Compound 14, 6-tert-butyl-thieno[2,3-b]quinoline-2-carboxylic acid [2(S)-amino-1-(3-amino-phenyl)-ethyl]-amide], with 7.60; and `CC(C)(C)c1ccc2nc3sc(C(=O)N[C@H](CN)c4cccc(NC(=O)c5cnccn5)c4)cc3cc2c1` [Compound 15, 6-tert-butyl-thieno[2,3-b]quinoline-2-carboxylic acid (2-amino-1(S)-{3-[(pyrazine-2-carbonyl)-amino]-phenyl}-ethyl)-amide], with 7.52.
Same read-out and setting: then `CC(C)(C)c1ccc2nc3sc(C(=O)N[C@H](CN)c4cccc(NC(=O)c5nccnc5N)c4)cc3cc2c1` [Compound 16], with 7.59; and `Cc1cc(C(=O)Nc2cccc([C@@H](CN)NC(=O)c3cc4cc5cc(C(C)(C)C)ccc5nc4s3)c2)no1` [Compound 17, 6-tert-butyl-thieno[2,3-b]quinoline-2-carboxylic acid (2-amino-1(S)-{3-[(5-methyl-isoxazole-3-carbonyl)-amino]-phenyl}-ethyl)-amide], with 7.44.
